One compound from patent US20260224716A1, “PTH ANALOGS FOR THE TREATMENT OF HYPOPARATHYROIDISM” (priority 2020, published 2026) can be followed below.

Assay type in all cases: in vivo, Sprague-Dawley rats
The nature of data set [1]: Plasma drug levels in rats, repeat daily dosing 7 days, LCMS (Example 13). On the procedure: Female Sprague-Dawley rats were single or double-housed and randomly assigned to four groups (n=5-6 per group) as described in Table 20, and then weighed.
After the treatment ceased, the animals were monitored on days 9 and 11 (washout period).
Body weight and food intake were measured on days 0, 1, 3, 5 and 7. Ca was measured on days 0, 1, 2, 3, 4, 7, 9 and 11. Pi was determined on the same samples, except for days 9 and 11.

For data set [2], the system named is serum calcium. In words: Serum calcium in rats, repeat daily dosing 28 days (Example 14). How it is done: Changes in body weight and food intake were also measured.
Body weight and food intake were measured on Day 0 (immediately prior to peptide administration), 1, 3, 7, 10, 14, 17, 21, 24, 28, 31, and 35. Serum Ca was measured at the start of the experiment and on Days 7, 14, 21, 28, 29, 30, 31, 32 and 34. Blood samples were collected via tail laceration for determination of total Ca in serum using commercially available colorimetric assays.

Data set [3] deals with serum calcium. In words: Serum calcium in parathyroidectomized rats, four daily doses (Example 15). As to conditions: for starting serum calcium concentration: before first dose. The text has this:
Rats were randomly distributed among 5 groups and injected subcutaneously for four consecutive days with either vehicle (sterile 0.9% NaCl solution; n=6), or SEQ ID NO; 87 (10, 25, 40 nmol/kg; n=8). Two separate vehicle treated groups of rats were studied. The first represented control rats surgically managed like the remaining rats, but their parathyroid gland was not removed (sham control). The second vehicle control group represented rats that were surgically managed in the same manner as the SEQ ID NO: 87 treated rats. Following surgery and one week prior to testing all the rats were placed on a defined diet at a specific calcium concentration.
A 96-well plate spectrophotometer (SpectraMax M5, Molecular Devices) was employed for detection. […] Absorbance (Ab) was measured at 650 nm wavelength. Manufacturer provided linearity up to 15 mg/dL. The serum calcium was measured immediately prior to injection (time 0 hour), followed by 24, 48, 72, and 96 hours.

Turning to `CC[C@H](C)[C@H](NC(=O)[C@H](CCC(=O)O)NC(=O)[C@H](CO)NC(=O)[C@@H](NC(=O)[C@H](CO)NC(=O)CN(C)C(=O)[C@H](N)CCCCNC(=O)CC[C@H](NC(=O)COCCOCCNC(=O)COCCOCCNC(=O)CC[C@H](NC(=O)CCCCCCCCCCCCCCCCC(=O)O)C(=O)O)C(=O)O)C(C)C)C(=O)N[C@@H](CCC(N)=O)C(=O)N[C@@H](CC(C)C)C(=O)N[C@@H](CCSC)C(=O)N[C@@H](Cc1c[nH]cn1)C(=O)N[C@@H](CC(N)=O)C(=O)N[C@@H](CC(C)C)C(=O)NCC(=O)N[C@@H](CCCCN)C(=O)N[C@@H](Cc1c[nH]cn1)C(=O)N[C@@H](CC(C)C)C(=O)N[C@@H](CC(N)=O)C(=O)N[C@@H](CO)C(=O)N[C@@H](CCSC)C(=O)N[C@@H](CCC(=O)O)C(=O)N[C@@H](CCCNC(=N)N)C(=O)N[C@H](C(=O)N[C@@H](CCC(=O)O)C(=O)N[C@@H](Cc1c[nH]c2ccccc12)C(=O)N[C@@H](CC(C)C)C(=O)N[C@@H](CCCNC(=N)N)C(=O)N[C@@H](CCCCN)C(=O)N[C@@H](CCCCN)C(=O)N[C@@H](CC(C)C)C(=O)N[C@@H](CCC(N)=O)C(=O)N[C@@H](CC(=O)O)C(=O)N[C@H](C(=O)N[C@@H](Cc1c[nH]cn1)C(=O)N[C@@H](CCCCNC(=O)CC[C@H](NC(=O)COCCOCCNC(=O)COCCOCCNC(=O)CC[C@H](NC(=O)CCCCCCCCCCCCCCCCC(=O)O)C(=O)O)C(=O)O)C(=O)O)C(C)C)C(C)C` [SEQ ID NO: 87], the “daily administrations to reach steady state plasma levels” value in data set [1] (daily SC dosing) is listed as “four”. Besides, the “difference in total concentration of prodrug to drug” value in data set [1] (seven daily SC injections, FIGS. 19A, 19B) is 4 fold. In addition, the “absolute increase in serum Ca over the course of the study” value in data set [2] (4 nmol/kg daily SC) amounted to 1.356 mg/dL; in data set [2] (8 nmol/kg daily SC) it was 1.452 mg/dL; in data set [2] (12 nmol/kg daily SC) it was 2.072 mg/dL. Besides, the results for the “percentage increase in serum Ca” value in data set [2] (4 nmol/kg daily SC), in data set [2] (8 nmol/kg daily SC) and in data set [2] (12 nmol/kg daily SC) were 14.7%, 16.7% and 23%, respectively. Besides, in data set [2] (4, 8, 12 nmol/kg daily SC), the “general health” value was “All animals appeared healthy”. Besides, the “serum calcium versus sham control” value in data set [3] (PTx rats, 25 nmol/kg daily SC, 72 hours) is “insignificantly different from the sham control rats”; in data set [3] (PTx rats, 40 nmol/kg daily SC, after 48 hours), “slightly exceeding that of the sham control rats”. Besides, the “serum calcium excess over the sham control” value in data set [3] (PTx rats, 40 nmol/kg, […] (72 hours after last dose)) is on record as “more than 0.2 nmol/ml”. Besides, the “starting serum calcium concentration” value in data set [3] (PTx rats, treatment group 10 nmol/kg) turned out to be 1.185 nmol/µL; in data set [3] (PTx rats, treatment group 25 nmol/kg), 1.354 nmol/µL; in data set [3] (PTx rats, treatment group 40 nmol/kg), 1.251 nmol/µL. For the same compound, the entries for the “starting serum calcium, higher level than vehicle treated PTx-rats” value in data set [3] (treatment group 10 nmol/kg), in data set [3] (treatment group 25 nmol/kg) and in data set [3] (treatment group 40 nmol/kg) were 9.2%, 24.8% and 15.3%, respectively.
